Experimental data as given in patent US12378193B2, “Anti-arrhythmicity agents” (The Regents of the University of California, priority 2014, dated 2025).
“Also recorded” adds a separate entry of the source.

Key:
[1] = tested on: mouse embryonic stem cell-derived cardiomyocytes (mESC-CMs); test: Ca2+ overload-induced irregular Ca2+ transients and contractions in mESC-CMs; format: cell-based; conditions: 10 mM Ca2+ext + 10 μM efsevin
Experimental: The mouse E14Tg2a ESC and human H9 ESC line were cultured and differentiated as previously described (Blin et al., 2010, J Clin Invest 120, 1125-1139; Arshi et al., 2013, Sci Technol Adv Mater 2013, 025003). At day 10 of differentiation, beating mouse EBs were exposed to external solution containing 10 mM CaCl2 for 10 minutes before DMSO or efsevin (10 μM) treatment. Human EBs were differentiated for 15 days and treated with 5 mM CaCl2) for 10 minutes before DMSO or efsevin (5 μM) treatment. Images of beating EBs were acquired at a rate of 30 frames/sec and analyzed by motion-detection software. For calcium recording, the EBs were loaded with 10 μM fluo-4 AM in culture media for 30 minutes at 37° C. Line-scan analysis was performed and fluorescent signals were acquired by a Zeiss LSM510 confocal microscope.

VDAC2 = test: Affinity bead pull down from zebrafish embryo lysate with mass spectrometry; format: binding; conditions: zebrafish embryonic lysate, affinity agarose beads
Experimental: For pull down assays mono-N-Boc protected 2,2′-(ethylenedioxy)bis(ethylamine) was attached to the carboxylic ester of efsevin and its derivatives through the amide bond. After removal of the Boc group using TFA, the primary amine was coupled to the carboxylic acid of Affi-Gel 10 Gel (Biorad). Two-day-old zebrafish embryos were deyolked by centrifugation before being lysed with Rubinfeld's lysis buffer (Rubinfeld et al., 1993, Science 262, 1731-1734). The lysate was precleaned by incubation with Affi-Gel 10 Gel to eliminate non-specific binding. Precleaned lysate was incubated with affinity beads overnight. Proteins were eluted from the affinity beads and separated on SDS-PAGE. Protein bands of interest were excised. Gel plugs were dehydrated in acetonitrile (ACN) and dried completely in a Speedvac. Samples were reduced and alkylated with 10 mM dithiotreitol and 10 mM TCEP solution in 50 mM NH4HCO3 (30 min at 56° C.) and 100 mM iodoacetamide (45 min in dark), respectively. Gel plugs were washed with 50 mM NH4HCO3, dehydrated with ACN, and dried down in a Speedvac. Gel pieces were then swollen in digestion buffer containing 50 mM NH4HCO3, and 20.0 ng/μL of chymotrypsin (25° C., overnight). Peptides were extracted with 0.1% TFA in 50% ACN solution, dried down and resuspended in LC buffer A (0.1% formic acid, 2% ACN).
Extracted peptides were analyzed by nano-flow LC/MS/MS on a Thermo Orbitrap with dedicated Eksigent nanopump using a reversed phase column (New Objective). The flow rate was 200 nL/min for separation: mobile phase A contained 0.1% formic acid, 2% ACN in water, and mobile phase B contained 0.1% formic acid, 20% water in ACN. The gradient used for analyses was linear from 5% B to 50% B over 60 min, then to 95% B over 15 min, and finally keeping constant 95% B for 10 min. Spectra were acquired in data-dependent mode with dynamic exclusion where the instrument selects the top six most abundant ions in the parent spectra for fragmentation. […]

[2] = tested on: zebrafish tremblor (tre) embryos; test: Cardiac performance (line-scan fractional shortening, heart rate) of tremblor embryos; format: in vivo
Experimental: Movies of GFP-labelled myl7:GFP hearts were taken at 30 frames per second. Line-scan analysis was performed along a line through the atria or the ventricles of these hearts (Nguyen et al., 2009, Drug Discovery Today: Disease Models 5). Fraction of shortening was deduced from the ratio of diastolic and systolic width and heart rate was determined by beats per minute. Cardiac parameters were analyzed in tremblor^tc318 and VDAC2^LA2256 at 2 dpf.

SMILES: CCOC(=O)C1=CCN(S(=O)(=O)c2ccc(C)cc2)C1c1ccccc1 (stereo not drawn) [efsevin]
- rhythmic Ca2+ transients and contractions under Ca2+ overload [1]: restored rhythmic Ca2+ transients and cardiac contractions; also recorded: restores regular Ca^2+ transients
- pull down of the 32 kD band (VDAC2) (VDAC2): pulled down
- heart rate ([2]; efsevin-treated tre embryos): 46±2 beats per minute (bpm)
- heart rate restored, relative to wild-type/controls ([2]; efsevin-treated tre embryos, 2 dpf, % of wild-type heart rate): approximately 40%
- Atrial FS ([2]; tre + efsevin, 48 hpf): 33±2%
- Ventricular FS ([2]; tre + efsevin, 48 hpf): 35±3%
